Patent US5466678A, “Co-administration of S-adenosyl-L-methionine to reduce the nephrotoxicity of cisplatin therapy” (priority 1992, dated 1995)
Like-named read-outs stand apart in the source and are kept apart here.

What was measured:
[1] = assay type: in vivo, rat (SD strain); conditions: for Concentration of SH compounds in blood plasma (as converted to glutathione concentration) / Concentration of SH compounds in renal tissue (as converted to glutathione concentration): mean ± S.D.
Procedure: Test method: To 6-week-old rats of the SD strain was intravenously administered SAMe in physiological saline (30 mg/kg, pH 6), and the blood level of SH group-containing compounds in the renal tissue was measured thereafter at 30, 60 and 120 minutes (N. Kaplowits et al., J. Pharmacol. Exp. Ther. , 1977, 200, 279-286) .
The values in the table for the concentration of SH compounds in the renal tissue and blood plasma presented as means ± standard deviation as calculated on the assumption that all the SH compounds were glutathione.

[2] = test system: nephrotoxicity caused by CDDP; assay: Test Example 2: nephrotoxicity (BUN) after single administration of CDDP in the dog; assay type: in vivo, dog (beagle); conditions: for BUN concentration: mean ± SD
Procedure: Nine beagle dogs (weighing 10.2-14.5 kg; 24-36 months of age) were divided into three groups of three animals each. […] BUN values were measured every two days after the administration and compared.

[3] = test system: L1210 leukemic cells; assay: Test Example 7: in vitro antitumor activity, L1210; assay type: cell-based, mouse; conditions: test drug alone
Procedure: (§1) Mouse L1210 and P388 leukemic cells were adjusted to 10^4 cells/ml in culture medium RPMI 1640, and the mixture was dispensed in 2 ml portions into culture test tubes (Falcon No. 2054) and cultured at 37° C. for 5 hours in the presence of 5% carbonic acid gas in a carbonic acid gas incubator. CDDP and/or SAMes were (was) then added into each culture test tube and incubation was continued for further one hour. The cultures were centrifuged at 1,600 rpm for 5 minutes and the culture medium was removed with suction. Two ml of RPMI 1640 was added to the residue and the mixture was cultured for 72 hours under the same conditions as described above, whereafter the number of cells in each of the resulting cultures was measured on a Coulter counter (Model ZB).

[4] = test system: tumor cells; assay: Antitumor activity, all tumor cells tested (summary); assay type: cell-based, mouse and human; conditions: SAMe alone, respective tumor cells
Procedure: as §1
(§2) Mouse Colon 26 colon tumor cells were adjusted to 5×10^3 cells/ml in culture medium […] culture was dispensed in 2 ml portions into culture Petri dishes. […] The cells were treated with trypsin, diluted and then counted using a Coulter counter.
Human tumor cells which are listed below were adjusted to 5×10^3 -2×10^4 cells/ml in culture medium RPMI 1640 (N.B. 1) or MEM (N.B. 2), and the respective cultures were dispensed in 2 ml portions into culture Petri dishes. […] The cells were treated with trypsin, diluted and then counted using a Coulter counter.

[5] = in vivo, iv
[6] = intraperitoneal administration, rat; cited from earlier work
[7] = test system: P388 leukemic cells; assay: Test Example 7: in vitro antitumor activity, P388; assay type: cell-based, mouse; conditions: CDDP alone
Procedure: The cultures were centrifuged at 1,600 rpm for 5 minutes and the culture medium was removed with suction.

[8] = test system: Colon 26 colon tumor cells; assay: Test Example 9: in vitro antitumor activity, Colon 26; assay type: cell-based, mouse; conditions: CDDP alone
Procedure: as §2, with “The culture medium was removed with suction, and after washing once with cold PBS(-) 2 ml portions of fresh medium were dispensed into the cultures, which were then cultured for further 72 hours. The” for “The”

[9] = test system: A549 pulmonary adenocarcinoma; assay: Test Example 10: antitumor activity against human tumors, A549; assay type: cell-based; conditions: CDDP alone
Procedure: (§3) After the culture medium was removed with suction, the respective residues were washed once with cold PBS (-), supplemented with 2 ml portions of fresh medium and then cultured for further 72 hours. The cells were treated with trypsin, diluted and then counted using a Coulter counter.
(§4) Culture medium MEM: 10% fetal calf serum, Kanamycin (60 μg/ml)
A549: pulmonary adenocarcinoma;

[10] = test system: LU65 pulmonary cancer; assay: Test Example 10: antitumor activity against human tumors, LU65; assay type: cell-based; conditions: CDDP alone
Procedure: as §3, §4

[11] = test system: MKN28 gastric adenocarcinoma; assay: Test Example 10: antitumor activity against human tumors, MKN28; assay type: cell-based; conditions: CDDP alone
Procedure: as §3, §4
MKN28: gastric adenocarcinoma;

[12] = test system: MKN45 gastric adenocarcinoma; assay: Test Example 10: antitumor activity against human tumors, MKN45; assay type: cell-based; conditions: CDDP alone
Procedure: as §3, §4
MKN45: gastric adenocarcinoma;

[13] = test system: DLD-1 colon adenocarcinoma; assay: Test Example 10: antitumor activity against human tumors, DLD-1; assay type: cell-based; conditions: CDDP alone
Procedure: as §3, §4
DLD-1: colon adenocarcinoma;

[14] = test system: WiDr colon adenocarcinoma; assay: Test Example 10: antitumor activity against human tumors, WiDr; assay type: cell-based; conditions: CDDP alone
Procedure: as §3, §4
WiDr: colon adenocarcinoma;

[15] = test system: MCAS ovarian cyst adenocarcinoma; assay: Test Example 10: antitumor activity against human tumors, MCAS; assay type: cell-based; conditions: CDDP alone
Procedure: as §3, §4
MCAS: ovarian cyst adenocarcinoma;

[16] = test system: PA-1 ovarian teratoma; assay: Test Example 10: antitumor activity against human tumors, PA-1; assay type: cell-based; conditions: CDDP alone
Procedure: as §3, §4

[17] = test system: ACHN renal adenocarcinoma; assay: Test Example 10: antitumor activity against human tumors, ACHN; assay type: cell-based; conditions: CDDP alone
Procedure: as §3, §4
ACHN: renal adenocarcinoma

[18] = test system: L1210 leukemic cells; assay: Test Example 8: in vivo potentiation of antitumor activity of CDDP, L1210; design: species or system mouse (CDF1 strain); conditions: for Animals showing 30 days of survival / ILS: days 1 and 5; for Change in body weight: day 7 minus day 1
Excerpt: Groups each containing six 8-week-old male mice of the CDF1 strain, weighing 24-28 g, were used. Mouse L1210 leukemic cells (10^5 cells) were transplanted into the abdominal cavity (on day 0).
wherein T stands for the average number of days of survival in the CDDP-administered groups of animals, and C for that in the non-CDDP-administered group (control group) of animals.
When the animals survived 30 days or more, the number of days of survival was deemed as 30 days for the purpose of calculation.
The administration was carried out intraperitoneally each time (on days 1 and 5). […] And the changes in body weight are presented as the difference between the mean body weights on days 1 and 7 (average body weight on day 7--average body weight on day 1) for each group.

[19] = test system: L1210 leukemic cells; assay: Test Example 11: potentiation by intraperitoneally or intravenously administered SAMe against mouse tumor L1210; assay type: in vivo, mouse (CDF1)
Excerpt: Groups each containing six 8- to 9-week-old male CDF1 mice weighing 24-28 g were used. Mouse L1210 leukemic cells (10^5 cells) were transplanted into the abdominal cavity (on day 0).

[20] = test system: mouse tumors; assay: Antitumor activity in vitro, mouse tumors (summary); assay type: cell-based; conditions: CDDP alone
Procedure: as §1
as §2, with “The culture medium was removed with suction, and after washing once with cold PBS(-) 2 ml portions of fresh medium were dispensed into the cultures, which were then cultured for further 72 hours. The” for “The”

[21] = test system: human tumors; assay: Antitumor activity in vitro, human tumors (summary); assay type: cell-based; conditions: CDDP alone
Procedure: Human tumor cells which are listed below were adjusted to 5×10^3 -2×10^4 cells/ml in culture medium RPMI 1640 (N.B. 1) or MEM (N.B. 2), and the respective cultures were dispensed in 2 ml portions into culture Petri dishes. […] After the culture medium was removed with suction, the respective residues were washed once with cold PBS (-), supplemented with 2 ml portions of fresh medium and then cultured for further 72 hours. The cells were treated with trypsin, diluted and then counted using a Coulter counter.

[22] = 30 min after SAMe 30 mg/kg i.v.
[23] = 60 min after SAMe 30 mg/kg i.v.
[24] = 120 min after SAMe 30 mg/kg i.v.

SMILES: C[S+](CC[C@H](N)C(=O)O)C[C@H]1O[C@@H](n2cnc3c(N)ncnc32)[C@H](O)[C@@H]1O (stereo partly drawn) [SAMe, S-adenosyl-L-methionine]
- Concentration of SH compounds in blood plasma (as converted to glutathione concentration) [1, 22]: 12.2 ± 2.7 μg/ml blood plasma
- Concentration of SH compounds in renal tissue (as converted to glutathione concentration) [1, 22]: 1219.3 ± 68.3 μg/g organ
- Concentration of SH compounds in blood plasma (as converted to glutathione concentration) [1, 23]: 12.5 ± 2.1 μg/ml blood plasma
- Concentration of SH compounds in renal tissue (as converted to glutathione concentration) [1, 23]: 1256.0 ± 125.3 μg/g organ
- Concentration of SH compounds in blood plasma (as converted to glutathione concentration) [1, 24]: 18.5 ± 3.0 μg/ml blood plasma
- Concentration of SH compounds in renal tissue (as converted to glutathione concentration) [1, 24]: 1201.1 ± 37.8 μg/g organ
- Accumulation in renal tissue ([1]; rat, in vivo, iv): accumulate the SAMe specifically in the renal tissue
- BUN concentration ([2]; SAMe 30 mg/kg i.v. with CDDP 4 mg/kg, day 1): 15.0 ± 1.04 mg/dL
- BUN concentration ([2]; SAMe 30 mg/kg i.v. with CDDP 4 mg/kg, day 6): 167.2 ± 102.30 mg/dL
- BUN concentration ([2]; SAMe 30 mg/kg i.v. with CDDP 4 mg/kg, day 12): 41.62 ± 0.00 mg/dL
- Mortality by day 7 ([2]; SAMe 30 mg/kg with CDDP 4 mg/kg): two out of the three animals
- BUN concentration ([2]; SAMe 100 mg/kg i.v. with CDDP 4 mg/kg, day 1): 13.4 ± 2.80 mg/dL
- BUN concentration ([2]; SAMe 100 mg/kg i.v. with CDDP 4 mg/kg, day 6): 27.6 ± 19.151 mg/dL
- BUN concentration ([2]; SAMe 100 mg/kg i.v. with CDDP 4 mg/kg, day 12): 25.5 ± 13.36 mg/dL
- IC50 ([3]; Mus musculus): > 1000 µM
- IC50 [4]: ≥ 1000 µM
- Distribution to renal tissue [5]: concentrates specifically at the renal tissue
- Metabolism at the renal tissue [5]: converted through the process of transmethylation to S-adenosylhomocysteine
- LD50 [6]: 2,000-2,500 mg/kg

SMILES: N.N.[Cl][Pt][Cl] [CDDP, cis-diamine-dichloroplatinum]
- IC50 [3]: 16.2 µM
- IC50 [7]: 3.5 µM
- IC50 [8]: 41.7 µM
- IC50 [9]: 18.7 µM
- IC50 [10]: 20.3 µM
- IC50 [11]: 62.8 µM
- IC50 [12]: 25.4 µM
- IC50 [13]: 23.5 µM
- IC50 [14]: 37.7 µM
- IC50 [15]: 150 µM
- IC50 [16]: 4.1 µM
- IC50 [17]: 48.4 µM
- Animals showing 30 days of survival ([18]; CDDP 4 mg/kg alone i.p.): 0/6
- ILS ([18]; CDDP 4 mg/kg alone i.p.): 73%
- Change in body weight ([18]; CDDP 4 mg/kg alone i.p.): -2.4 g
- Animals showing 30 days of survival ([18]; CDDP 6 mg/kg alone i.p.): 0/6
- ILS ([18]; CDDP 6 mg/kg alone i.p.): 121%
- Change in body weight ([18]; CDDP 6 mg/kg alone i.p.): -4.5 g
- ILS ([19]; CDDP 4 mg/kg alone, intraperitoneal): 78%
- ILS ([19]; CDDP 4 mg/kg alone, intravenous): 28%
- ILS ([19]; CDDP 6 mg/kg alone, intraperitoneal): 84%
- IC50 [20]: 3.5 to 41.7 µM
- IC50 [21]: 4.1 to 150 µM
